# Reference: patent US6133264A, “Carbostyril derivatives for inhibiting skin erythema and/or skin pigmentation” (Otsuka Pharmaceutical Co., Ltd., priority 1997, dated 2000)
# Where a name gives a salt, the structure may show the parent alone.
# Columns and labels:
# skin erythema (sunburn) = assay: Effect for preventing skin sunburn caused by UV rays irradiation (in vivo); set-up: species or system albino guinea pig (Hartley strain, female); conditions: 3% test compound solution, 24 hours after UV irradiation; for (C): Δa value of test section of skin coated with test compound solution: 10 μl; for inhibition in vivo at 3 %: Cavia porcellus, light or radiation study, topical, 24 h, read-out: Inhibitory ratio of skin erythema (%); for inhibition in vivo at 3 % / Inhibitory ratio of skin erythema (%): {1-[(C)/(D)]}×100
# Description: (2) Effect for preventing skin sunburn caused by UV rays irradiation (in vivo)
# This test is an experimental model of quantitative evaluation of effect for preventing skin sunburn, caused by UV rays irradiation, performed by the test compound. [Test was conducted by a modified method according to the procedures of J. Dermatol. Vol. 17, pp. 595-598, (1990).]
# Hairs on the back of an albino guinea pig (Hartley strain, female, age of 7-8 weeks) were shaved by use of an electric hair clipper and an electric shaver. Next day, the guinea pig was fixed on a Bowlman cage, a piece of shading tape (a plaster for patch test) having 4 circular holes of 1.5 cm in diameter was put on the shaved portion of the skin, and predetermined 2 sections of UV rays irradiation. One section (reference section) was coated with 10 μl of a solvent (water or 50% ethanol-water solution). Another section (test section) was coated with 10 μl of 3% test compound solution (aqueous or 50% ethanol-water solution). 30 Minutes after the coating, UV rays of 1.3-1.5 mW/cm^2 in strength was irradiated for 30 minutes by use of a fluorescent lamp of healthy light (TOSHIBA FL-20.cndot.SE) as a light source. 24 Hours after the irradiation, the reference section (coated with the solvent only) and the test section (coated with test compound solution) were observed respectively, and the erythrochromia (Δa value) on both reference section and test section were measured by use of a color difference meter (OFC-300A Type, mfd. by NIHON DENSHOKU KOGYO CO., LTD). The inhibitory ratio of skin erythema (sunburn) performed by the test compound was calculated from the following formula.
# Inhibitory ratio of skin erythema (sunburn) (%)={1-[(C)/(D)]}×100
# (C): Δa Value of test section of skin coated with test compound solution,
# (D): Δa Value of reference section of skin coated with the solvent only, and
# Δa value: difference of skin erythema on the portion irradiated with UV rays].
# [1] = test system: skin reaction (erythema and edema); assay: Skin sensitization test (Adjuvant and strip test), photosensitization; type: in vivo, Albino guinea pigs (Hertley strain, female); conditions: 3% test compound solution, open-coated; observed 24 hours and 48 hours; [(G)/(H)]×100
# Description: (4) Skin sensitization test [Adjuvant and strip test: J. Invest. Dermatol., Vol. 76, pp 498-501, (1981)]
# This test was used as experimental model for evaluating the existence of toxicity of photosensitization to the skin performed by the test compounds.
# (i) Procedure for inducing photosensitization
# Albino guinea pigs (Hertley strain, female, age of 5-6 weeks) were used. Hairs of the nuchal area of the guinea pig were shaved, and designated the test sample coating section having 2×4 cm in size. At the four corners of the test sample coating section, 0.1 ml each of E-FCA (an emulsion consisting of the same volume each of Freund's complete adjuvant with sterilized distilled water) were intracutaneouly injected. The coating section was subjected to striping repeatedly by use of Cellophane tape until the section turned to slightly erythema, then 0.1 ml of test compound solution (aqueous or 50% ethanol-water solution) of 3% in concentration was open-coated on the section. 30 Minutes after the coating, UV rays of about 10 J/cm^2 in dosage was irradiated by use of a fluorescent lamp of healthy light (TOSHIBA FL-20S-BLB) as a light source. The above-mentioned procedure was carried out once a day, and continuously conducted for 5 days, provided that E-FCA was administered only on the first day.
# (ii) Procedure for introducing sensitization
# 3 Weeks after the beginning of induction period of photosensitization, the covering hairs on the back of guinea pig were shaved, and determined a circular section, having 1.5 cm in diameter, for coating test samples, and 20 μl of test compound solution (aqueous or 50% ethanol-water solution) of 3% in concentration was open-coated on the section. The test sample coated section was observed 24 hours and 48 hours, and examined existences of skin reaction (erythema and edema). In case of skin reaction was appeared, then it was determined as positive reaction in skin sensitization which was defined as a positive ratio (%) calculated from the following formula.
# Positive ratio (%)=[(G)/(H)]×100
# (G): Number of positive reactions in skin sensitization and
# (H): Number of total animal tests].
# [2] = DPPH free radical extinction activity test; type: biochemical; conditions: relative to α-tocopherol (= 2); 5 μl of 10 mM test compound, 30° C., 30 minutes, pH 5.5 buffer, 517 nm
# Description: (1) DPPH free radical extinction activity test
# The test was conducted by procedures according to the method by Marsden S. Blois [Nature, Vol. […], 1199-1200, (1958)].
# Into 0.5 ml of 200 mM of acetic acid buffer solution (pH 5.5) were added 0.5 ml of distilled water, 0.5 ml of ethanol and 5 μl of 10 mM of the test compound solution (an ethanol solution, a dimethylformamide solution or an aqueous solution), and stirred at 30° C. for 5 minutes. To this mixed solution was added 1.5 ml of an ethanol solution of 250 μM of 1,1-diphenyl-2-picrylhydrazyl (DPPH), this mixture was incubated at 30° C. for 30 minutes. After the incubation, the optical absorbance (at 517 nm) of this reaction mixture was measured, and the number of captured free radicals of DPPH was calculated from the ratio of optical absorbance of test compound and that of α-tocopherol (standard substance: the number of captured free radicals: 2) by the following formula: […]
# Number of captured free radicals of DPPH performed by test
# (A): optical absorbance of the test sample, and
# (B): optical absorbance of α-tocopherol].
# skin pigmentation = assay: Effect for preventing skin pigmentation caused by UV rays irradiation; type: in vivo, colored guinea pig (A-1 strain, female); conditions: 3% test compound solution, 14 days after UV irradiation; for (E): ΔL value of brightness of the skin coated with test compound solution (test section): 10 μl/cm^2; for Inhibitory ratio of skin pigmentation (%): {1-[(E)/(F)]}×100
# Description: (3) Effect for preventing skin pigmentation caused by UV rays irradiation This is an experimental model of quantitative evaluation of effect for preventing skin pigmentation caused by UV rays irradiation performed by test compound. [Test was conducted by a modified method according to procedures of J. Dermatol. Vol. 17, pp. 595-598,(1990).] Hairs on the back of a colored guinea pig (A-1 strain, female, age of 8-10 weeks) were shaved and the body of guinea pig was fixed on a Bowlman cage, and predermined 2 sections of UV rays irradiation. […] The inhibitory ratio of the skin pigmentation (%) performed by the test compound was calculated from the following formula. […] [wherein (E): ΔL value of brightness of the skin coated with test compound solution (test section), (F): ΔL value of brightness of the skin coated the solvent (reference section), and ΔL value: difference of brightness of the skin between the portion without irradiated and the portion irradiated with UV rays].
# [3] = assigned value of the standard α-tocopherol; cited from earlier work
SMILES,(C): Δa value of test section of skin coated with test compound solution (skin erythema (sunburn)),inhibition in vivo at 3 % (skin erythema (sunburn)) [%],Positive ratio (%) [1] [%],Number of captured free radicals of DPPH [2],(E): ΔL value of brightness of the skin coated with test compound solution (test section) (skin pigmentation),Inhibitory ratio of skin pigmentation (%) (skin pigmentation),Inhibitory ratio of skin erythema (%) (skin erythema (sunburn)),number of captured free radicals (standard substance) [3]
"Cl.O=c1ccc2c(CN3CCCC3)c(O)ccc2[nH]1 [Example 22, 6-hydroxy-5-(1-pyrrolidinyl)methyl-2(1H)-quinolinone hydrochloride]",5.51 ± 2.32,37,0,1.5,,,,
"C=CCOc1cc(CN2CCCCC2)c(O)c2c1NC(=O)CC2 [Example 28, 8-allyloxy-3,4-dihydro-5-hydroxy-6-(1-piperidinyl)methyl-2(1H)-quinolinonehydrochloride]",1.13 ± 0.58,,0,2,-4.51 ± 1.87,43,78,
Cc1c(C)c2c(c(C)c1O)CCC(C)(CCCC(C)CCCC(C)CCCC(C)C)O2 (stereo not drawn) [α-tocopherol],,,,,,,,2
O=C1CCc2c(O)c(CN3CCCC3)cc(OC3CCCCO3)c2N1 (stereo not shown) [Example 47],0.88 ± 0.29,76,0,3.5,-4.89 ± 1.24,38,,
"CCN(CC)Cc1ccc2c(c1O)CCC(=O)N2 [Example 13, 6-diethylaminomethyl-5-hydroxy-3,4-dihydrocarbostyril]",3.93 ± 0.92,42,0,1,,,,
"C=CCOc1cc(CN(C)C)c(O)c2c1NC(=O)CC2 [Example 18, 8-allyloxy-3,4-dihydro-5-hydroxy-6-dimethyl-aminomethyl-2(1H)-quinolinone hydrochloride]",3.87 ± 2.45,51,0,1.5,-3.53 ± 1.24,49,,
"COc1cc(CN(C)C)c(O)c2c1NC(=O)CC2.Cl [Example 35, 6-(dimethylaminomethyl)-3,4-dihydro-5-hydroxy-8-methoxy-2(1H)-quinolinone hydrochloride]",3.61 ± 2.91,51,0,1.5,-4.44 ± 2.17,35,,
"CCN(CC)Cc1cc(C)c2c(c1O)CCC(=O)N2 [Example 9, 5-Hydroxy-6-diethylaminomethyl-8-methyl-3,4-dihydro-2(1H)-quinolinone]",4.69 ± 1.62,38,0,1,,,,
C=CCOc1cc(CN2CCCCC2)c(O)c2c1N(CC=C(C)C)C(=O)CC2 [Example 32],2.17 ± 0.97,64,0,1,-3.37 ± 2.36,42,,
Cc1cc2c(c(CN3CCCC3)c1O)NC(=O)CC2 [Example 25],3.31 ± 2.00,64,0,1,-5.02 ± 2.02,38,,
"CCCOc1cc(CN2CCCCC2)c(O)c2c1NC(=O)CC2.Cl [Example 30, 3,4-dihydro-8-propyloxy-5-hydroxy-6-(1-piperidinyl)methyl-2(1H)-quinolinone hydrochloride]",4.73 ± 1.94,40,0,2,-3.40 ± 1.18,50,,
C=CCOc1cc(CN2CCCCC2)c(O)c2c1NC(=O)CC2 [Example 33],3.96 ± 1.02,,0,1.5,-2.61 ± 2.98,55,49,
